Data from patent US7405201B2, “Antibacterial macrocycles” (Bayer Healthcare AG, priority 2001, dated 2008).
≈ marks a conversion by molar mass, not a printed value. Where two headings read alike, the source gives them in different places. Positions of bridges follow the written chain, without caps; N, C: chain ends. Non-standard residues stand in square brackets, D forms with d. Residues, ends and D or L forms follow the SMILES beside them. ξ: configuration not given here. *: point of attachment. Phe(3,5-F2) = N[C@@H](Cc1cc(F)cc(F)c1)C(=O)O; Phe(3-Cl) = N[C@@H](Cc1cccc(Cl)c1)C(=O)O; ξPhe(3,5-F2) = NC(Cc1cc(F)cc(F)c1)C(=O)O; Pro(4R-Me) = C[C@H]1CN[C@H](C(=O)O)C1; Phe(2-F) = N[C@@H](Cc1ccccc1F)C(=O)O; Heptenoyl(2E) = CCCC/C=C/C(=O)*; NMeS = CN[C@@H](CO)C(=O)O; X4 = O=C(/C=C/C1CC=CCC1)*; NMeA = CN[C@@H](C)C(=O)O; X1 = CC(C)/C=C(\F)C(=O)*; X5 = CCCC(C)/C=C/C(=O)*; X2 = CCCCC/C=C/C(=O)*; ξPip = O=C(O)C1CCCCN1; X3 = O=C(C=C1CCC1)*

Key:
[1] = amide bond, EDC/pentafluorophenol (Pfp ester), then HCl/dioxane, then aq. NaHCO3, dichloromethane, 25.0 °C, 3 steps
[2] = tested on: Enterococcus faecium L 4001; experiment: Minimum inhibitory concentration (MIC), liquid dilution test; assay type: cell-based; settings: L4001, Müller Hinton broth, 37° C., 18-24 hours, 8-10% of CO2
Experimental: (§1) Determination of the Minimum Inhibitory Concentration (MIC): The MIC is determined in the liquid dilution test. Overnight cultures of the test microorganisms are diluted 1:5 000 or S. aureus 133 is diluted 1:10 000 in Müller Hinton broth (manufacturer: BBL) and incubated with dilutions of the test substances (dilution stages 1:2). Exceptions are the tests with S. pyogenes Wacker and S. pneumoniae 1707/4, which are carried out in Müller Hinton broth plus 20% bovine serum. The cultures are incubated at 37° C. for 18-24 hours; enterococci and streptococci in the presence of 8-10% of CO2. The lowest substance concentration in each case at which visible bacterial growth no longer takes place is defined as the MIC. […] The compounds show very good antibacterial action against most of the test microorganisms and thus a broad Gram-positive action.

[3] = tested on: Streptococcus pneumoniae 1707/4; experiment: as above; assay type: cell-based; settings: Müller Hinton broth plus 20% bovine serum, 37° C., 18-24 hours, 8-10% of CO2
Experimental: as §1

[4] = tested on: Staphylococcus aureus 133; experiment: as above; assay type: cell-based; settings: Müller Hinton broth, overnight culture diluted 1:10 000, 37° C., 18-24 hours
Experimental: as §1

[5] = tested on: Enterococcus faecalis ICB 27159; experiment: as above; assay type: cell-based; settings: ICB27159, Müller Hinton broth, 37° C., 18-24 hours, 8-10% of CO2
Experimental: as §1

[6] = tested on: Streptococcus pyogenes Wacker; experiment: as above; assay type: cell-based; settings: Müller Hinton broth plus 20% bovine serum, 37° C., 18-24 hours, 8-10% of CO2
Experimental: as §1

Compound | MIC [2] [µg/mL] | MIC [3] [µg/mL] | MIC [4] [µg/mL] | MIC [5] [µg/mL] | MIC [6] [µg/mL] | ring closure, yield of all isomers ([1]; from C[C@@H]1C[C@@H](C(=O)OC[C@H](NC(=O)OCc2ccccc2)C(=O)O)N(C(=O)[C@H](C)NC(=O)[C@@H]2CCCCN2C(=O)[C@@H]2CCCN2C(=O)OC(C)(C)C)C1, 2.58 mM, 16.0 h) [%] | ring closure, yield of all isomers ([1]; from C[C@H](NC(=O)[C@H](C)N(C)C(=O)[C@@H]1CCCN1C(=O)OC(C)(C)C)C(=O)N1CCC[C@H]1C(=O)OC[C@H](NC(=O)OCc1ccccc1)C(=O)O, 8.9 mM, 2.0 h) [%]
C[C@@H]1C[C@H]2C(=O)OC[C@H](NC(=O)OCc3ccccc3)C(=O)N3CCC[C@H]3C(=O)N3CCCC[C@H]3C(=O)N[C@@H](C)C(=O)N2C1 |  |  |  |  |  | 60 | 
C[C@@H]1NC(=O)[C@H](C)N(C)C(=O)[C@@H]2CCCN2C(=O)[C@@H](NC(=O)OCc2ccccc2)COC(=O)[C@@H]2CCCN2C1=O |  |  |  |  |  |  | 58
C[C@@H]1C[C@H]2C(=O)OC[C@H](NC(=O)[C@H](Cc3cc(F)cc(F)c3)NC(=O)CCC3CCCCC3)C(=O)N3CCC[C@H]3C(=O)N3CCCC[C@H]3C(=O)N[C@@H](C)C(=O)N2C1 [Example 3, 3-Cylcohexylpropanoic acid [(S)-2-(3,5-difluorophenyl)-1-((3S,9S,13S,15R,19S,22S)-15,19-Dimethyl-2,8,12,18,21-pentaoxo-11-oxa-1,7,17,20-tetraaza-tetracyclo[20.4.0.0^3,7.0^13,17]hexacos-9-ylcarbamoyl)-ethyl]-amide] | < 0.125 | < 0.125 | 0.5 (≈ 0.626 µM) | < 0.125 | 0.5 |  | 
CCCC/C=C/C(=O)N[C@@H](Cc1cc(F)cc(F)c1)C(=O)N[C@H]1COC(=O)[C@@H]2C[C@@H](C)CN2C(=O)[C@H](C)NC(=O)[C@H](C)N(C)C(=O)[C@@H]2CCCN2C1=O [Example 6] ({Heptenoyl(2E)}-[Phe(3,5-F2)]SP[NMeA]A[Pro(4R-Me)]; ester 2-C) | < 0.125 | 0.125 | < 0.125 | < 0.125 | 0.25 |  | 
C[C@@H]1NC(=O)[C@H](C)N(C)C(=O)[C@@H]2CCCN2C(=O)[C@@H](NC(=O)[C@H](Cc2ccccc2F)NC(=O)/C=C/C2CC=CCC2)COC(=O)[C@@H]2CCCN2C1=O (stereo partly drawn) [Example 28] (X4-[Phe(2-F)]SP[NMeA]AP; ester 2-C) | 4 (≈ 5.43 µM) | 1 | 8 (≈ 10.9 µM) | 8 (≈ 10.9 µM) | 2 |  | 
C=CCC/C=C/C(=O)N[C@@H](Cc1cc(F)cc(F)c1)C(=O)N[C@H]1COC(=O)[C@@H]2C[C@@H](C)CN2C(=O)[C@H](C)NC(=O)[C@@H]2CCCCN2C(=O)[C@@H]2CCCN2C1=O [Example 79] | < 0.125 | 0.5 | 0.25 (≈ 0.325 µM) | < 0.125 | 1 |  | 

Now from value to compound, other results behind:

MIC [2] [µg/mL] | MIC [3] [µg/mL] | MIC [4] [µg/mL] | MIC [5] [µg/mL] | MIC [6] [µg/mL] | Compound | ring closure, yield of all isomers ([1]; from C[C@@H]1C[C@@H](C(=O)OC[C@H](NC(=O)OCc2ccccc2)C(=O)O)N(C(=O)[C@H](C)NC(=O)[C@@H]2CCCCN2C(=O)[C@@H]2CCCN2C(=O)OC(C)(C)C)C1, 2.58 mM, 16.0 h) [%] | ring closure, yield of all isomers ([1]; from C[C@H](NC(=O)[C@H](C)N(C)C(=O)[C@@H]1CCCN1C(=O)OC(C)(C)C)C(=O)N1CCC[C@H]1C(=O)OC[C@H](NC(=O)OCc1ccccc1)C(=O)O, 8.9 mM, 2.0 h) [%]
< 0.125 | < 0.125 | 0.25 (≈ 0.342 µM) | < 0.125 | 25 | CCCC/C=C/C(=O)N[C@@H](Cc1cc(F)cc(F)c1)C(=O)N[C@H]1COC(=O)[C@@H]2CCCN2C(=O)[C@H](C)NC(=O)[C@H](C)N(C)C(=O)[C@@H]2CCCN2C1=O [Example 1, (E)-Hept-2-enoic acid [(S)-2-(3,5-difluorophenyl)-1-((3S,7S,13S,16S,19S)-13,16,17-trimethyl-2,6,12,15,18-pentaoxo-5-oxa-1,11,14,17-tetraazatricyclo[17.3.0.0^7,11]docos-3-ylcarbamoyl)-ethyl]-amide] ({Heptenoyl(2E)}-[Phe(3,5-F2)]SP[NMeA]AP; ester 2-C) |  | 
< 0.125 | < 0.125 | 0.25 (≈ 0.335 µM) | < 0.125 | < 0.125 | CCCC/C=C/C(=O)N[C@@H](Cc1cc(F)cc(F)c1)C(=O)N[C@H]1COC(=O)[C@@H]2CCCN2C(=O)[C@H](C)NC(=O)[C@H](CO)N(C)C(=O)[C@@H]2CCCN2C1=O [Example 13] ({Heptenoyl(2E)}-[Phe(3,5-F2)]SP[NMeS]AP; ester 2-C) |  | 
0.5 (≈ 0.673 µM) | 2 | 4 (≈ 5.38 µM) | 1 (≈ 1.35 µM) | 2 | CCCCC/C=C/C(=O)N[C@@H](Cc1cccc(Cl)c1)C(=O)N[C@H]1COC(=O)[C@@H]2CCCN2C(=O)[C@H](C)NC(=O)[C@H](C)N(C)C(=O)[C@@H]2CCCN2C1=O [Example 32] (X2-[Phe(3-Cl)]SP[NMeA]AP; ester 2-C) |  | 
32 (≈ 43.1 µM) | 16 | 64 (≈ 86.2 µM) | 32 (≈ 43.1 µM) | 16 | CCCC/C=C/C(=O)NC(Cc1cc(F)cc(F)c1)C(=O)N[C@H]1COC(=O)[C@@H]2CCCN2C(=O)CNC(=O)C2CCCCN2C(=O)[C@@H]2CCCN2C1=O (stereo partly drawn) [Example 61] ({Heptenoyl(2E)}-[ξPhe(3,5-F2)]SP[ξPip]GP; ester 2-C) |  | 
< 0.125 | < 0.125 | 0.5 (≈ 0.671 µM) | < 0.125 | 0.25 | CCCC(C)/C=C/C(=O)N[C@@H](Cc1cc(F)cc(F)c1)C(=O)N[C@H]1COC(=O)[C@@H]2CCCN2C(=O)[C@H](C)NC(=O)[C@H](C)N(C)C(=O)[C@@H]2CCCN2C1=O (stereo partly drawn) [Example 75] (X5-[Phe(3,5-F2)]SP[NMeA]AP; ester 2-C) |  | 
0.5 (≈ 0.68 µM) | 0.25 | 4 (≈ 5.44 µM) | 0.5 (≈ 0.68 µM) | 0.5 | CC(C)/C=C(\F)C(=O)N[C@@H](Cc1cc(F)cc(F)c1)C(=O)N[C@H]1COC(=O)[C@@H]2CCCN2C(=O)[C@H](C)NC(=O)[C@H](C)N(C)C(=O)[C@@H]2CCCN2C1=O [Example 84] (X1-[Phe(3,5-F2)]SP[NMeA]AP; ester 2-C) |  | 
4 (≈ 5.6 µM) | 1 | 32 (≈ 44.8 µM) | 2 (≈ 2.8 µM) | 2 | C[C@@H]1NC(=O)[C@H](C)N(C)C(=O)[C@@H]2CCCN2C(=O)[C@@H](NC(=O)[C@H](Cc2cc(F)cc(F)c2)NC(=O)C=C2CCC2)COC(=O)[C@@H]2CCCN2C1=O [Example 85] (X3-[Phe(3,5-F2)]SP[NMeA]AP; ester 2-C) |  | 
